From paper PMC12703428, “Development of Granzyme A Turn‐ON Fluorescent Activity‐Based Probes” (Chembiochem, 2025) come the findings set out here.

Assay [1] has as its target T1, GzmA in lysate of NK‐92 cells (Homo sapiens, UniProt P12544).
T1 construct: host or cells: NK-92
T1 sequence (P12544 29-262): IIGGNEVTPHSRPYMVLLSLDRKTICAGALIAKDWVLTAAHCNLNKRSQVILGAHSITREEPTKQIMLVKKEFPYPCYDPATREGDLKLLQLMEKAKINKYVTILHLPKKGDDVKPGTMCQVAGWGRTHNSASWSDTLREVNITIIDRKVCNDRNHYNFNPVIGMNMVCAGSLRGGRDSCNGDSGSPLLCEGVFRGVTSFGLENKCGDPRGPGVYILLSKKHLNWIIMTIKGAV
Nature of the assay: Labeling of GzmA in NK-92 cell lysate. Format: biochemical. To be noted: 1 mg/mL lysate, various probe concentrations, 1 h, 37 °C, in-gel fluorescence. The method, then: Figure 4 Characterization of qABPs in native proteomes. A) Labeling of GzmA by 5 and 6 in lysates of various cell lines (1 h, 37 °C). B) Stability of 5 and 6 in buffer and cell media (11 h, 37 °C). The hydrolysis of probes was measured by monitoring the production of Cy5 fluorescence signal over time. […] C) Labeling of GzmA by probes 3 –6 in NK‐92 cells (2 h, 37 °C). D) Flow cytometry analysis of protein labeling in NK‐92 cells by 3 –5. […] E) Flow cytometry analysis of concentration‐dependent GzmA labeling in NK‐92 cells and S/N of 5 (5 μM, 2 h, 37 °C). […]
Briefly, hGzmA (50 nM) was incubated with either inhibitor 1 or 2 (200 nM), and GzmA fluorogenic substrate […] (100 µM) in 50 mM Tris, 150 mM NaCl, 0.01% Triton X-100 (pH 8) for 15 hr at 37 °C. Recorded fluorescence at Ex/Em: 380/460 nm for residual GzmA […]
Cat. No. CRL-2570) and 4T1 (ATCC Cat. No. CRL-2539) cells were cultured in RPMI supplemented with 10% fetal bovine serum (FBS), 1% penicillin/streptomycin (PS), and 2 mM L-glutamine, while HEK293T and MDA-MB-231 cells (ATCC Cat. No. HTB-26) were cultured in DMEM supplemented likewise as described above. […] The supernatant was collected, and protein concentration was measured using a Pierce BCA protein assay. […]
C. In-gel fluorescence imaging […]

In a further assay the target is T2, neutrophil elastase (NE) (Homo sapiens, UniProt P08246).
T2 sequence (P08246 30-267): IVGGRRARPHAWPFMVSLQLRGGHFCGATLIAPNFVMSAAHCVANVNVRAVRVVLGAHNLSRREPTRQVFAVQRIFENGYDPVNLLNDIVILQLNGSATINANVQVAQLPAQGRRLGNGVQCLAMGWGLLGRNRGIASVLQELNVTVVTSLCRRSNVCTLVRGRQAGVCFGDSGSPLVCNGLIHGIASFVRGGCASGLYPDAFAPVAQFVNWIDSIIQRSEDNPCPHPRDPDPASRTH
Nature of the assay: Cross-reactivity labeling, neutrophil elastase. The note with it: protease 100 nM, probe 100 nM, 2 h, 37 °C, in-gel fluorescence. Type of assay: biochemical. The method, then:
Protease (100 nM) HNE PR3 GzmK GzmA
Protease (100 nM) GzmA GzmK
Supplementary Figure 2. Cross-reactivity of probes. (A) Labeling of GzmA, GzmK, PR3, and HNE
(100 nM, 2 h, 37 °C) by 100 nM of 5 and 6. (B) Labeling of GzmA and GzmK (100 nM, 2 h, 37 °C) by
100 nM of 3 – 6. (C) Concentration-dependent labeling of GzmA and GzmK (100 nM, 2 h, 37 °C) by 5 and
6. Protein samples were analyzed by SDS-PAGE and in-gel fluorescence scanning for Cy5 signal.
Protein loading was confirmed by SYPRO Ruby staining. […]

Square brackets hold non-standard residues; d marks the D form. Ends that are not written are not given here. Oic = O=C(O)[C@@H]1C[C@@H]2CCCC[C@@H]2N1; Tic = O=C(O)[C@@H]1Cc2ccccc2CN1

IGNR [compound 5]: in assay [1], the “Labeling of GzmA in NK-92 lysate” value is on record as “selectively labeled GzmA in a concentration‐dependent manner at low nanomolar levels”. At neutrophil elastase (NE), the “Labeling of NE (cross-reactivity)” value is listed as “Neither probe 5 nor 6 showed detectable labeling”.
For [Tic]G[Oic]R [compound 6] the same measures were “selectively labeled GzmA in a concentration‐dependent manner at low nanomolar levels” and “Neither probe 5 nor 6 showed detectable labeling”.
